Experimental data reported in patent publication US4469680A, “Iodinated vasopressin antagonists” (SmithKline Beckman Corporation, priority 1983, dated 1984).
Starred links: 1 amine or outer side, 2 acyl side, 3 side chain; linkers in the order of their positions; H or OH if unused. Positions of bridges follow the written chain, without caps; N, C: chain ends. Non-standard residues stand in square brackets, D forms with d. Residues, ends and D or L forms follow the SMILES beside them. dTyr(3,5-I2) = N[C@H](Cc1cc(I)c(O)c(I)c1)C(=O)O; dTyr(3-I) = N[C@H](Cc1ccc(O)c(I)c1)C(=O)O; X1 = O=C(CC1(S[*:2])CCCCC1)[*:1]

Each compound was assayed against vasopressin receptors (V2 -receptors) (Sus scrofa, UniProt P32307) (assay: biochemical).
Text: These values represent total and non-specific binding, respectively.

vasopressin receptors (V2 -receptors), sequence (P32307 whole entry): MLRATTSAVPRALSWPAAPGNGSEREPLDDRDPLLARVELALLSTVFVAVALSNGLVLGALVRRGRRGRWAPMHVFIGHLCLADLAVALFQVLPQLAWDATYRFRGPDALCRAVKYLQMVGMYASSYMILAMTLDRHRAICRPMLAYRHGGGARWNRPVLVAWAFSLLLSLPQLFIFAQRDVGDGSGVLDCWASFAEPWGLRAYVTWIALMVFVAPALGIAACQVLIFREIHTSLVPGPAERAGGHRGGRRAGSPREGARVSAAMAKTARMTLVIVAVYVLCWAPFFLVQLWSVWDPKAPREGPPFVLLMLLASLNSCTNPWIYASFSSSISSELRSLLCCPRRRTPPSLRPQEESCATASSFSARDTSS

Going from `CC(C)[C@@H]1NC(=O)[C@H](Cc2ccccc2)NC(=O)[C@@H](Cc2cc(I)c(O)c(I)c2)NC(=O)CC2(CCCCC2)SSC[C@@H](C(=O)N2CCC[C@H]2C(=O)N[C@@H](CCCNC(=N)N)C(=O)NCC(N)=O)NC(=O)[C@H](CC(N)=O)NC1=O` [C, [Pmp^1, D-Tyr(I2)^2, Val^4]AVP] ([dTyr(3,5-I2)]FVNCPRG-NH2; linker N-5 via X1) to `CC(C)[C@@H]1NC(=O)[C@H](Cc2ccccc2)NC(=O)[C@@H](Cc2ccc(O)c(I)c2)NC(=O)CC2(CCCCC2)SSC[C@@H](C(=O)N2CCC[C@H]2C(=O)N[C@@H](CCCNC(=N)N)C(=O)NCC(N)=O)NC(=O)[C@H](CC(N)=O)NC1=O` [B, [Pmp^1, D-Tyr(I)^2, Val^4]AVP] ([dTyr(3-I)]FVNCPRG-NH2; linker N-5 via X1), the Kb falls from 2.4 µM to 0.12 µM (20-fold).

Compound `CC(C)[C@@H]1NC(=O)[C@H](Cc2ccccc2)NC(=O)[C@@H](Cc2ccc(O)cc2)NC(=O)CC2(CCCCC2)SSC[C@@H](C(=O)N2CCC[C@H]2C(=O)N[C@@H](CCCN=C(N)N)C(=O)NCC(N)=O)NC(=O)[C@H](CC(N)=O)NC1=O` [A, [Pmp^1, D-Tyr^2, Val^4]AVP, reference compound] ([dY]FVNCPRG-NH2; linker N-5 via X1) has a Kb of 0.1 µM.
